{"source": "patent US5756120A", "about": "“Antibiotic formulation and use for drug resistant infections” (NeXstar Pharmaceuticals, Inc., priority 1995, dated 1998)", "tested_on": "M. tuberculosis drug resistant strain Vertulla", "assay_type": "cell-based", "conditions": "for CFU (1 × 10^3): duplicate values; for inhibition or killing of drug resistant M. tuberculosis: concentrations tested (4, 8 and 16 μg/ml)", "note": "Where “and” joins values, the source holds several entries; their conditions need not be identical. Identical values can stand only once. Entries after “also recorded” stand apart in the source; their conditions may differ. Like-named read-outs stand apart in the source and are kept apart here."}
{"smiles": "NCC[C@H](O)C(=O)N[C@@H]1C[C@H](N)[C@@H](O[C@H]2O[C@H](CN)[C@@H](O)[C@H](O)[C@H]2O)[C@H](O)[C@H]1O[C@H]1O[C@H](CO)[C@@H](O)[C@H](N)[C@H]1O", "note": "[amikacin]", "values": [{"measurement": "Avg. log CFU", "setting": "4 μg/ml, day 4", "result": 3.9, "unit": "log CFU"}, {"measurement": "CFU (1 × 10^3)", "setting": "4 μg/ml, day 4", "result": "9.3 1 × 10^3 CFU and 8.0 1 × 10^3 CFU"}, {"measurement": "Avg. log CFU", "setting": "4 μg/ml, day 7", "result": 5.2, "unit": "log CFU"}, {"measurement": "Avg. log CFU", "setting": "8 μg/ml, day 4", "result": 3.7, "unit": "log CFU"}, {"measurement": "CFU (1 × 10^3)", "setting": "8 μg/ml, day 4", "result": "5 1 × 10^3 CFU and 4 1 × 10^3 CFU"}, {"measurement": "Avg. log CFU", "setting": "8 μg/ml, day 7", "result": 3.7, "unit": "log CFU"}, {"measurement": "CFU (1 × 10^3)", "setting": "8 μg/ml, day 7", "result": "4.5 1 × 10^3 CFU and 6.2 1 × 10^3 CFU"}, {"measurement": "Avg. log CFU", "setting": "16 μg/ml, day 4", "result": 3.7, "unit": "log CFU"}, {"measurement": "CFU (1 × 10^3)", "setting": "16 μg/ml, day 4", "result": "5 1 × 10^3 CFU and 5.4 1 × 10^3 CFU"}, {"measurement": "Avg. log CFU", "setting": "16 μg/ml, day 7", "result": 3.6, "unit": "log CFU"}, {"measurement": "CFU (1 × 10^3)", "setting": "16 μg/ml, day 7", "result": "3.7 1 × 10^3 CFU and 4.1 1 × 10^3 CFU"}, {"measurement": "inhibition or killing of drug resistant M. tuberculosis", "setting": "listed as free amikacin", "result": "at the most, inhibition; also recorded: only inhibit the growth of the infection without killing at the concentrations tested"}, {"measurement": "inhibition or killing of drug resistant M. tuberculosis", "setting": "listed as free drug", "result": "only inhibits the growth of the bacteria"}]}
